# According to patent publication US20210244735A1, “COMPOSITIONS AND METHODS FOR TREATING MYELOFIBROSIS” (Impact Biomedicines, Inc., priority 2010, published 2021):
# Entries after “also recorded” stand apart in the source; their conditions may differ. Where a name gives a salt, the structure may show the parent alone.
# Assays:
# [1] = Bioavailability in multiple species; details: in vivo, oral
# subjects with MF = assay: Phase 1 dose-escalation study MF-TG101348-001 (and extension MF-TG101348-002): clinical response (spleen, leukocytosis, thrombocytosis, constitutional symptoms, bone marrow); type: in vivo, human; details: for subjects achieving a normal WBC count: following 6 cycles; for subjects achieving a normal platelet count: after 6 cycles; for subjects with minimum 25% decrease in palpable spleen size: intent-to-treat
# Experimental: The key eligibility criteria for subjects included: Myelofibrosis (PMF or post-PV/ET MF); High-risk or intermediate-risk with symptomatic splenomegaly/unresponsive to available therapy; ECOG performance status ≤2; ANC≥1×10^9/L; Platelet count≥50×10^9/L; Serum creatinine ≤2 mg/dL; Total bilirubin ≤2 mg/dL; AST/ALT≤3X upper limit of normal.
# All patients provided written informed consent.
# (§1) Responses were measured every 4 weeks per International Working Group for MPN Research and Treatment (IWG-MRT) criteria (Tefferi A et al., Blood 108:1497-1503, 2006). Assessment of bone marrow histology was performed at baseline and every 24 weeks of therapy. Changes in JAK2V 617F allele burden in the granulocyte fraction of peripheral blood were measured as previously described (Kittur J et al., Cancer 109:2279-2284, 2007); the assessments were at baseline and every 4 weeks during the first 6 cycles, and every 6th cycle of therapy in the extension study.
# serum EPO and TPO = assay: Phase 1 study: serum EPO and TPO levels; type: in vivo, human; details: after treatment initiation (data not shown)
# [2] = Phase 1 study: plasma pharmacokinetics, non-compartmental analysis; type: in vivo, human
# Experimental: Pharmacokinetics: The concentration—time curves of TG101348 in plasma were evaluated by a non-compartmental analysis (with the use of WinNonlin® software, version 5.2).
# JAK2V617F allele burden = assay: Phase 1 study: JAK2V617F allele burden in granulocyte fraction of peripheral blood; type: in vivo, human
# Experimental: as §1
# [3] = tested on: IL-6, IL-8, IL-2 and TNF-α; assay: Phase 1 study: cytokine assessment by multiplexed sandwich ELISAs; type: in vivo, human; details: relative to baseline during treatment; dihydrochloride monohydrate
# Experimental: Cytokine Assessment: Samples for cytokine measurement were collected at baseline and every 4 weeks thereafter. Cytokine levels were measured using multiplexed sandwich ELISAs (Millipore, St. Charles, Mo.).
# [4] = Compatibility with capsule shells, accelerated stability; type: physicochemical; details: 250 mg filled capsules, 40° C./75% RH and 25° C./60% RH, t=1, 2, and 3 weeks
# Experimental: Hard gelatin and hydroxypropylmethyl cellulose (HPMC) capsule shells (size […]) were filled with 250 mg of TG101348 di-HCl monohydrate. The filled capsules were placed on accelerated stability (40° C./75% relative humidity (RH) and 25° C./60% RH). The capsules were packaged into 30 mL (1 oz) amber high density polyethylene (HDPE) bottles.
# [5] = MTD cohort, after 1 cycle (n=12)
# [6] = MTD cohort, after 1 cycle, 8 subjects at baseline
# [7] = MTD cohort, after 6 cycles (n=16)
# [8] = at 3 months, 33 patients who started at >680 mg and completed at least 3 cycles
# [9] = mean, 240 mg/day (n=3), Cycle 1 Day 28
# [10] = mean, 360 mg/day (n=3), Cycle 1 Day 28
# [11] = mean, 800 mg/day (n=5), Cycle 1 Day 28
structure (smiles),measurement,setting,value
"Cc1cnc(Nc2ccc(OCCN3CCCC3)cc2)nc1Nc1cccc(S(=O)(=O)NC(C)(C)C)c1 [TG101348, N-tert-butyl-3-[(5-methyl-2-{[4-(2-pyrrolidin-1-ylethoxy)phenyl]amino}pyrimidin-4-yl)amino]benzenesulfonamide dihydrochloride monohydrate]",bioavailability,[1],20 to 25%
same,normal WBC count at last follow-up visit,subjects with MF; 21 patients with leukocytosis at baseline who started at ≥680 mg,70%
same,complete response in splenomegaly,subjects with MF; Example 2 conclusions,~30%
same,proportion achieving ≥50% reduction in palpable splenomegaly,subjects with MF; Example 2 conclusions,two-thirds
same,subjects achieving CI,"subjects with MF; JAK2V617F-negative MF, 4 subjects who completed 6 cycles",75%
same,night sweats: complete resolution,"subjects with MF; MTD cohort, after 1 cycle",64 % of subjects
same,cough: complete resolution,subjects with MF; [5],67%
same,cough: improvement,subjects with MF; [5],75%
same,pruritus: complete resolution,subjects with MF; [6],50%
same,pruritus: improvement,subjects with MF; [6],75%
same,early satiety: complete resolution,"subjects with MF; MTD cohort, after 2 cycles (n=27)",56%
same,night sweats: complete resolution,"subjects with MF; MTD cohort, after 6 cycles (n=9)",89%
same,fatigue: complete resolution,subjects with MF; [7],25%
same,fatigue: improvement,subjects with MF; [7],63%
same,subjects with disease progression,subjects with MF; all subjects,Three
same,reduction in palpable spleen size at least 50%,subjects with MF; [8],22 (67%) patients (%)
same,spleen became non-palpable,subjects with MF; [8],9 (27%) patients (%)
same,normal WBC counts at follow-up visit,"subjects with MF; baseline WBC count >11×10^9/L, follow-up doses 360 to 680 mg/day",73 % of subjects
same,subjects achieving a normal WBC count,"subjects with MF; baseline leukocytosis (WBC >11×10^9/L), across doses (16 of 28)",57%
same,subjects achieving a normal WBC count,"subjects with MF; baseline leukocytosis, MTD cohort (13 of 18)",72%
same,effect on thrombocytosis,subjects with MF; baseline platelet count >450×10^9/L,able to reduce platelet counts
same,subjects achieving a normal platelet count,"subjects with MF; baseline thrombocytosis (platelet count >450×10^9/L), across doses (10 subjects)",90%
same,subjects achieving a normal platelet count,"subjects with MF; baseline thrombocytosis, MTD cohort (7 subjects)",100%
same,≥50% decrease in palpable spleen size persistent for at least 8 weeks (Clinical Improvement per IWG-MRT),"subjects with MF; by cycle 6, MTD cohort",45 % of subjects
same,subjects with minimum 25% decrease in palpable spleen size,"subjects with MF; by cycle 6, MTD cohort",65%
same,≥50% decrease in palpable spleen size persistent for at least 8 weeks (Clinical Improvement per IWG-MRT),"subjects with MF; by cycle 6, overall",39 % of subjects
same,subjects with minimum 25% decrease in palpable spleen size,"subjects with MF; by cycle 6, overall",61%
same,spleen responses (CI),"subjects with MF; by cycle 12, MTD cohort",50 % of subjects
same,spleen responses (CI),"subjects with MF; by cycle 12, overall",48 % of subjects
same,"effect on constitutional symptoms (early satiety, fatigue, cough, pruritus, night sweats)","subjects with MF; evaluable subjects, baseline versus last visit, dihydrochloride monohydrate",clinically significant benefit or resolution; also recorded: able to improve; also recorded: remarkable activity
same,pruritus,"subjects with MF; one subject with JAK2V617F-positive PMF, started at 680 mg/day",complete resolution
same,bone marrow fibrosis after 18 cycles,"subjects with MF; person, V617F negative PMF, baseline 3+, starting dose 240 mg/day, follow-up 440 mg/day",0
same,bone marrow cellularity after 18 cycles,"subjects with MF; person, V617F negative PMF, baseline 60%, starting dose 30 mg/day, follow-up 520 mg/day",5-10%
same,serum EPO and to a lesser extent TPO levels relative to baseline,serum EPO and TPO,increases
same,plasma concentration over at least 24 hours after the dose,"[2]; 360 mg/day, Cycle 1 Day 28",above IC90
same,plasma concentration over at least 24 hours after the dose,"[2]; 520 mg/day, Cycle 1 Day 28",above 3×IC90
same,increase of mean steady-state AUC0-t over a 27-fold increase in dose,[2]; in vivo,~88 fold
same,increase of mean steady-state C. over a 27-fold increase in dose,[2]; in vivo,approximately 54 fold
same,λz (elimination rate constant),"[2]; mean, 30 mg/day (n=3), Cycle 1 Day 28",0.0354 h⁻¹
same,λz (elimination rate constant),"[2]; mean, 60 mg/day (n=3), Cycle 1 Day 28",0.0456 h⁻¹
same,λz (elimination rate constant),"[2]; mean, 120 mg/day (n=3), Cycle 1 Day 28",0.0305 h⁻¹
same,T1/2 (terminal half-life),[2]; [9],20.77 h
same,λz (elimination rate constant),[2]; [9],0.0352 h⁻¹
same,Cmax,[2]; [10],1717.33 ng/mL
same,T1/2 (terminal half-life),[2]; [10],21.39 h
same,λz (elimination rate constant),[2]; [10],0.0353 h⁻¹
same,λz (elimination rate constant),"[2]; mean, 520 mg/day (n=3), Cycle 1 Day 28",0.0343 h⁻¹
same,λz (elimination rate constant),"[2]; mean, 680 mg/day (n=27), Cycle 1 Day 28",0.0301 h⁻¹
same,T1/2 (terminal half-life),[2]; [11],23.99 h
same,λz (elimination rate constant),[2]; [11],0.0331 h⁻¹
same,patients with ≥50% reduction in VF allele burden,"JAK2V617F allele burden; 48 evaluable VF-positive patients, last available follow-up",21 (44%) patients (%)
same,subjects with ≥50% decrease in JAK2V617F,"JAK2V617F allele burden; baseline >20%, 18 subjects who completed 12 cycles",7 (39%) subjects (%)
same,JAK2V617F allele burden compared to pre-study baseline,"JAK2V617F allele burden; end of cycle 6 and cycle 12, Wilcoxon matched-pair signed-rank test",significant decrease
same,"effect on cytokine levels (IL-6, IL-8, IL-2, TNF-α)",[3],no significant changes; also recorded: minimal effect; also recorded: no consistent changes
same,"changes in attributes (appearance, assay, impurities) in capsule shells",[4],No appreciable changes
